Data taken from ChEMBL document CHEMBL3045157, “Synthesis and evaluation of in vitro antitubercular activity and antimicrobial activity of some novel 4H-chromeno[2,3-d]pyrimidine via 2-amino-4-phenyl-4H-chromene-3-carbonitriles” (2011).
Converted amounts (≈) assume the structure as drawn.

How the values were obtained:
Assay type in all cases: functional
[1] = tested on: Pseudomonas aeruginosa; assay: Antibacterial activity against Pseudomonas aeruginosa MTCC 441 after 24 hr by serial dilution method; details: MTCC 441, 24 h
[2] = tested on: Escherichia coli; assay: Antibacterial activity against Escherichia coli ATCC 25922 after 24 hr by serial dilution method; details: ATCC 25922, 24 h
[3] = tested on: Mycobacterium tuberculosis; assay: Antitubercular activity against Mycobacterium tuberculosis H37Rv by agar microdilution method
[4] = tested on: Aspergillus niger; assay: Antifungal activity against Aspergillus niger MTCC 282 after 24 hr by serial dilution method
[5] = tested on: Staphylococcus aureus; assay: Antibacterial activity against Staphylococcus aureus ATCC 25923 after 24 hr by serial dilution method; details: ATCC 25923, 24 h
[6] = tested on: Streptococcus pyogenes; assay: Antibacterial activity against Streptococcus pyogenes MTCC 443 after 24 hr by serial dilution method; details: MTCC 443, 24 h

Compound	MIC [1] [µg/mL]	MIC [2] [µg/mL]	MIC [3] [µg/mL]	MIC ([4]; MTCC 282, 24 h) [µg/mL]	MIC [5] [µg/mL]	MIC [6] [µg/mL]	MIC [4] [µg/mL]
O=c1[nH]cnc2c1C(c1ccccc1)c1ccc(O)cc1O2 (stereo not given)	250 (≈ 855 µM)	62.5 (≈ 214 µM)	62.5 (≈ 214 µM)	1000 (≈ 3420 µM)	500 (≈ 1710 µM)	500 (≈ 1710 µM)	
Nc1nc(=O)[nH]c2c1C(c1ccccc1)c1ccc3cccnc3c1O2 (stereo not given)	500 (≈ 1460 µM)	500 (≈ 1460 µM)	125 (≈ 365 µM)	250 (≈ 730 µM)	125 (≈ 365 µM)	125 (≈ 365 µM)	
Nc1nc(=S)[nH]c2c1C(c1ccccc1)c1ccccc1O2 (stereo not given)	125 (≈ 407 µM)	125 (≈ 407 µM)	500 (≈ 1630 µM)	125 (≈ 407 µM)	250 (≈ 813 µM)	250 (≈ 813 µM)	
Nc1nc(=S)[nH]c2c1C(c1ccccc1)c1ccc(O)cc1O2 (stereo not given)	125 (≈ 387 µM)	250 (≈ 773 µM)	500 (≈ 1550 µM)	125 (≈ 387 µM)	500 (≈ 1550 µM)	250 (≈ 773 µM)	
S=c1[nH]c2c(c(=S)[nH]1)C(c1ccccc1)c1ccccc1O2 (stereo not given)	250 (≈ 771 µM)	250 (≈ 771 µM)	500 (≈ 1540 µM)	1000 (≈ 3080 µM)	500 (≈ 1540 µM)	500 (≈ 1540 µM)	
S=c1[nH]c2c(c(=S)[nH]1)C(c1ccccc1)c1ccc3cccnc3c1O2 (stereo not given)	125 (≈ 333 µM)	125 (≈ 333 µM)	200 (≈ 533 µM)	500 (≈ 1330 µM)	62.5 (≈ 166 µM)	62.5 (≈ 166 µM)	
S=c1[nH]c2c(c(=S)[nH]1)C(c1ccccc1)c1ccc3ccccc3c1O2 (stereo not given)	250 (≈ 668 µM)	250 (≈ 668 µM)	500 (≈ 1340 µM)	500 (≈ 1340 µM)	125 (≈ 334 µM)	250 (≈ 668 µM)	
O=c1[nH]cnc2c1C(c1ccccc1)c1ccc3ccccc3c1O2 (stereo not given)	250 (≈ 766 µM)	125 (≈ 383 µM)	125 (≈ 383 µM)	1000 (≈ 3060 µM)	62.5 (≈ 192 µM)	62.5 (≈ 192 µM)	
O=c1[nH]cnc2c1C(c1ccccc1)c1ccc3cccnc3c1O2 (stereo not given)	125 (≈ 382 µM)	250 (≈ 764 µM)	500 (≈ 1530 µM)	500 (≈ 1530 µM)	125 (≈ 382 µM)	250 (≈ 764 µM)	
Nc1nc(=S)[nH]c2c1C(c1ccccc1)c1ccc3ccccc3c1O2 (stereo not given)	125 (≈ 350 µM)	500 (≈ 1400 µM)	1000 (≈ 2800 µM)	1000 (≈ 2800 µM)	500 (≈ 1400 µM)	500 (≈ 1400 µM)	
Nc1nc(=O)[nH]c2c1C(c1ccccc1)c1ccc3ccccc3c1O2 (stereo not given)	250 (≈ 732 µM)	500 (≈ 1460 µM)	1000 (≈ 2930 µM)	500 (≈ 1460 µM)	125 (≈ 366 µM)	125 (≈ 366 µM)	
O=C(O)c1cn(C2CC2)c2cc(N3CCNCC3)c(F)cc2c1=O [CIPROFLOXACIN]		25 (≈ 75.4 µM)			50 (≈ 151 µM)	50 (≈ 151 µM)	
Nc1nc(=O)[nH]c2c1C(c1ccccc1)c1c(ccc3ccccc13)O2 (stereo not given)	500 (≈ 1460 µM)	250 (≈ 732 µM)	250 (≈ 732 µM)	250 (≈ 732 µM)	62.5 (≈ 183 µM)	62.5 (≈ 183 µM)	
CC1(C)S[C@@H]2[C@H](NC(=O)[C@H](N)c3ccccc3)C(=O)N2[C@H]1C(=O)O [AMPICILLIN]	100 (≈ 286 µM)	100 (≈ 286 µM)			100 (≈ 286 µM)	250 (≈ 715 µM)	
Nc1nc(=S)[nH]c2c1C(c1ccccc1)c1c(ccc3ccccc13)O2 (stereo not given)	500 (≈ 1400 µM)	500 (≈ 1400 µM)	1000 (≈ 2800 µM)	1000 (≈ 2800 µM)	250 (≈ 699 µM)	500 (≈ 1400 µM)	
Oc1ccc2c(c1)Oc1[nH]c(=S)[nH]c(=S)c1C2c1ccccc1 (stereo not given)	250 (≈ 734 µM)	125 (≈ 367 µM)	200 (≈ 587 µM)	1000 (≈ 2940 µM)	62.5 (≈ 184 µM)	62.5 (≈ 184 µM)	
NYSTATIN							100
Nc1nc(=O)[nH]c2c1C(c1ccccc1)c1ccccc1O2 (stereo not given)	62.5 (≈ 215 µM)	62.5 (≈ 215 µM)	500 (≈ 1720 µM)	500 (≈ 1720 µM)	125 (≈ 429 µM)	125 (≈ 429 µM)	
Nc1nc(=O)[nH]c2c1C(c1ccccc1)c1ccc(O)cc1O2 (stereo not given)	125 (≈ 407 µM)	250 (≈ 814 µM)	125 (≈ 407 µM)	250 (≈ 814 µM)	125 (≈ 407 µM)	250 (≈ 814 µM)	
O=c1[nH]cnc2c1C(c1ccccc1)c1c(ccc3ccccc13)O2 (stereo not given)	125 (≈ 383 µM)	125 (≈ 383 µM)	125 (≈ 383 µM)	500 (≈ 1530 µM)	125 (≈ 383 µM)	125 (≈ 383 µM)	
Nc1nc(=S)[nH]c2c1C(c1ccccc1)c1ccc3cccnc3c1O2 (stereo not given)	62.5 (≈ 174 µM)	62.5 (≈ 174 µM)	500 (≈ 1390 µM)	500 (≈ 1390 µM)	125 (≈ 349 µM)	250 (≈ 697 µM)	
COC1=CC(=O)C[C@@H](C)[C@]12Oc1c(Cl)c(OC)cc(OC)c1C2=O [GRISEOFULVIN]				100 (≈ 283 µM)			
CO[C@H]1/C=C/O[C@@]2(C)Oc3c(C)c(O)c4c(O)c(c(/C=N/N5CCN(C)CC5)c(O)c4c3C2=O)NC(=O)/C(C)=C\C=C\[C@H](C)[C@H](O)[C@@H](C)[C@@H](O)[C@@H](C)[C@H](OC(C)=O)[C@@H]1C [RIFAMPIN]			40 (≈ 48.6 µM)				
O=c1[nH]cnc2c1C(c1ccccc1)c1ccccc1O2 (stereo not given)	250 (≈ 905 µM)	250 (≈ 905 µM)	500 (≈ 1810 µM)	500 (≈ 1810 µM)	250 (≈ 905 µM)	500 (≈ 1810 µM)	
S=c1[nH]c2c(c(=S)[nH]1)C(c1ccccc1)c1c(ccc3ccccc13)O2 (stereo not given)	125 (≈ 334 µM)	250 (≈ 668 µM)	100 (≈ 267 µM)	500 (≈ 1340 µM)	125 (≈ 334 µM)	250 (≈ 668 µM)	
